The text below walks through data of US7507816B2, “Pharmaceutical preparations comprising substituted beta-aminoalcohols” (Gruenenthal GmbH, priority 2001, dated 2009).

In this test the target is T1, NA transporter (Rattus norvegicus, UniProt Q9WTR4).
T1 construct: synaptosomes were freshly isolated from rat brain regions; from tissue; host or cells: rat hypothalamus synaptosomes (P2 fraction)
T1 sequence (Q9WTR4 1-597): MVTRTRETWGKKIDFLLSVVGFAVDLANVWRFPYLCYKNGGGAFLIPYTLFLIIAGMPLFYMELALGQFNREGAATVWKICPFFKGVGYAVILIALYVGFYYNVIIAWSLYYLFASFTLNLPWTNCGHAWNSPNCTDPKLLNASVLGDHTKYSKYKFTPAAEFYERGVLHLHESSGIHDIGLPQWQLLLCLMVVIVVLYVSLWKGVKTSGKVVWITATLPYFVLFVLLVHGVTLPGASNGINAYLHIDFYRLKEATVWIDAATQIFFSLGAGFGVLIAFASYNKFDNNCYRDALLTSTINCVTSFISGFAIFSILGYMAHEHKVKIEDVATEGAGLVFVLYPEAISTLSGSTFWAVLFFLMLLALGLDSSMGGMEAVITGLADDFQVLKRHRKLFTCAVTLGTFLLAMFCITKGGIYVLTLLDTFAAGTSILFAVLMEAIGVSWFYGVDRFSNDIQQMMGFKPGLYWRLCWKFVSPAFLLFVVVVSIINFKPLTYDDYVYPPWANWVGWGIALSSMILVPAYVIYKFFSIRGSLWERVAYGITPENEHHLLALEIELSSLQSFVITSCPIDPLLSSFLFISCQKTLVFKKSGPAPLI
Put plainly: Noradrenaline reuptake inhibition (NA uptake inhibition) in rat brain synaptosomes. The test is classed as biochemical. The conditions noted are these: test concentration of 10^−5 M; synaptosomes (P2 fraction) from the hypothalamus of male rat brains. On the procedure:
Investigations Relating to Noradrenaline Reuptake Inhibition (NA Uptake Inhibition)
The compounds according to the invention are NA uptake inhibitors. In order to be able to carry out these in vitro studies, synaptosomes were freshly isolated from rat brain regions. A so-called “P2” fraction was used, which was prepared according to the instructions given by Gray and Whittaker (E. G. Gray and V. P. Whittaker (1962) J. Anat. 76, 79-88). For NA uptake, these vesicular particles were isolated from the hypothalamus of male rat brains.
The following characteristics were determined for the NA transporter: NA uptake: Km=0.32±0.11 μM (In each case N=4, i.e. means±SEM from 4 independent series of tests, which were performed as parallel tests in triplicate).
A detailed description of the method may be found in the literature (M. Ch. Frink, H.-H. Hennies, W. Englberger, M. Haurand and B. Wilffert (1996) Arzneim.-Forsch./Drug Res. 46 (III), 11, 1029-1036). The NA uptake inhibition of selected compounds was determined. The values were determined at a test concentration of 10^−5 M.
Take `OC1(c2cccc(Cl)c2Cl)CCCCCC1CN1CCCC1` (stereo not shown) [1-(2,3-Dichloro-phenyl)-2-pyrrolidin-1-ylmethyl-cycloheptanol]: the inhibition at 10 µM came to 63%. The same measure, in the same setting: the figure for `OC1(c2cccc(Cl)c2Cl)CCCCC1CN1CCCC1` (stereo not shown) [1-(2,3-Dichloro-phenyl)-2-pyrrolidin-1-ylmethyl-cyclohexanol] is 60%; for `OC1(c2cccc(Cl)c2Cl)CCCC1CN1CCCC1` (stereo not shown) [1-(2,3-Dichloro-phenyl)-2-pyrrolidin-1-ylmethyl-cyclopentanol] it is 53%; for `OC1(c2ccc(Cl)cc2Cl)CCCCCC1CN1CCCC1` (stereo not shown) [1-(2,4-Dichloro-phenyl)-2-pyrrolidin-1-ylmethyl-cycloheptanol] it is 55%. The compound `OC1(CCCc2ccccc2)CCCCCC1CN1CCCC1` (stereo not shown) [1-(3-Phenyl-propyl)-2-pyrrolidin-1-ylmethyl-cycloheptanol] displayed an inhibition at 10 µM of 63%. On the same count and under the same terms, under `OC1(CCCc2ccccc2)CCCC1CN1CCCC1` (stereo not shown) [1-(3-Phenyl-propyl)-2-pyrrolidin-1-ylmethyl-cyclopentanol] stands 65%. Turning to `OC1(c2ccc(Cl)cc2)CCCC1CN1CCCC1` (stereo not shown) [1-(4-Chloro-phenyl)-2-pyrrolidin-1-ylmethyl-cyclopentanol], the “NA Uptake (% inhibition)” value is given as 68% and the inhibition at 10 µM was found to be 75%.

`Cc1cc(C2(O)CCCCCC2CN2CCCC2)ccc1F` (stereo not shown) [1-(4-Fluoro-3-methyl-phenyl)-2-pyrrolidin-1-ylmethyl-cycloheptanol] yielded an inhibition at 10 µM of 83%. Still for that read-out and setting: under `Cc1cc(C2(O)CCCC2CN2CCCC2)ccc1F` (stereo not shown) [1-(4-Fluoro-3-methyl-phenyl)-2-pyrrolidin-1-ylmethyl-cyclopentanol] stands 59%.

With `OC1(c2ccc(F)cc2)CCCCCC1CN1CCCC1` (stereo not shown) [1-(4-Fluoro-phenyl)-2-pyrrolidin-1-ylmethyl-cycloheptanol], at 10 µM the inhibition was 57%. Same read-out and setting: under `COc1ccc(C2(O)CCCCCC2CN2CCCC2)cc1` (stereo not shown) [1-(4-Methoxy-phenyl)-2-pyrrolidin-1-ylmethyl-cycloheptanol] stands 69%; under `OC1(CCc2ccccc2)CCCCCC1CN1CCCC1` (stereo not shown) [1-Phenethyl-2-pyrrolidin-1-ylmethyl-cycloheptanol], 82%; under `OC1(CCc2ccccc2)CCCC1CN1CCCC1` (stereo not shown) [1-Phenethyl-2-pyrrolidin-1-ylmethyl-cyclopentanol], 59%. The same measure, in the same setting: the figure for `OC1(c2ccccc2)CCCCCC1CN1CCCC1` (stereo not shown) [1-Phenyl-2-pyrrolidin-1-ylmethyl-cycloheptanol] is 56%.

In the case of `OC1(C#Cc2ccccc2)CCCC1CN1CCCC1` (stereo not shown) [1-Phenylethynyl-2-pyrrolidin-1-ylmethyl-cyclopentanol], the “NA Uptake (% inhibition)” value is 92%.

For the compound `OC1(CCCc2ccccc2)CCCCC1CN1CCCCCC1` (stereo not shown) [2-Azepan-1-ylmethyl-1-(3-phenyl-propyl)-cyclohexanol], 10 µM produced 77% inhibition. Same read-out and setting: the figure for `OC1(CCCc2ccccc2)CCCC1CN1CCCCCC1` (stereo not shown) [2-Azepan-1-ylmethyl-1-(3-phenyl-propyl)-cyclopentanol] is 59%; for `OC1(c2ccc(Cl)cc2)CCCC1CN1CCCCCC1` (stereo not shown) [2-Azepan-1-ylmethyl-1-(4-chloro-phenyl)-cyclopentanol] it is 80%. The same measure, in the same setting: under `Cc1cc(C2(O)CCCCCC2CN2CCCCCC2)ccc1F` (stereo not shown) [2-Azepan-1-ylmethyl-1-(4-fluoro-3-methyl-phenyl)-cycloheptanol] stands 63%; under `Cc1cc(C2(O)CCCCC2CN2CCCCCC2)ccc1F` (stereo not shown) [2-Azepan-1-ylmethyl-1-(4-fluoro-3-methyl-phenyl)-cyclohexanol], 54%; under `Cc1cc(C2(O)CCCC2CN2CCCCCC2)ccc1F` (stereo not shown) [2-Azepan-1-ylmethyl-1-(4-fluoro-3-methyl-phenyl)-cyclopentanol], 73%. On the same count and under the same terms, under `OC1(c2ccc(F)cc2)CCCCC1CN1CCCCCC1` (stereo not shown) [2-Azepan-1-ylmethyl-1-(4-fluoro-phenyl)-cyclohexanol] stands 52%; under `COc1ccc(C2(O)CCCCCC2CN2CCCCCC2)cc1` (stereo not shown) [2-Azepan-1-ylmethyl-1-(4-methoxy-phenyl)-cycloheptanol], 58%; under `COc1ccc(C2(O)CCCCC2CN2CCCCCC2)cc1` (stereo not shown) [2-Azepan-1-ylmethyl-1-(4-methoxy-phenyl)-cyclohexanol], 58%. `COc1ccc(C2(O)CCCC2CN2CCCCCC2)cc1` (stereo not shown) [2-Azepan-1-ylmethyl-1-(4-methoxy-phenyl)-cyclopentanol] had an inhibition at 10 µM of 58%. On the same count and under the same terms, under `OC1(Cc2ccccc2)CCCCCC1CN1CCCCCC1` (stereo not shown) [2-Azepan-1-ylmethyl-1-benzyl-cycloheptanol] stands 55%; under `Cc1cccc(C2(O)CCCC2CN2CCCCCC2)c1` (stereo not shown) [2-Azepan-1-ylmethyl-1-m-tolyl-cyclopentanol], 59%; under `Cc1ccc(C2(O)CCCCCC2CN2CCCCCC2)cc1` (stereo not shown) [2-Azepan-1-ylmethyl-1-p-tolyl-cycloheptanol], 58%. On the same count and under the same terms, under `Cc1ccc(C2(O)CCCCC2CN2CCCCCC2)cc1` (stereo not shown) [2-Azepan-1-ylmethyl-1-p-tolyl-cyclohexanol] stands 64%. On the same count and under the same terms, the figure for `Cc1ccc(C2(O)CCCC2CN2CCCCCC2)cc1` (stereo not shown) [2-Azepan-1-ylmethyl-1-p-tolyl-cyclopentanol] is 70%; for `OC1(CCc2ccccc2)CCCCCC1CN1CCCCCC1` (stereo not shown) [2-Azepan-1-ylmethyl-1-phenethyl-cycloheptanol] it is 87%; for `OC1(CCc2ccccc2)CCCCC1CN1CCCCCC1` (stereo not shown) [2-Azepan-1-ylmethyl-1-phenethyl-cyclohexanol] it is 70%.

`OC1(CCc2ccccc2)CCCC1CN1CCCCCC1` (stereo not shown) [2-Azepan-1-ylmethyl-1-phenethyl-cyclopentanol] showed an inhibition at 10 µM of 92%. Still for that read-out and setting: the figure for `OC1(c2ccccc2)CCCCCC1CN1CCCCCC1` (stereo not shown) [2-Azepan-1-ylmethyl-1-phenyl-cycloheptanol] is 52%. Consider `OC1(C#Cc2ccccc2)CCCC1CN1CCCCCC1` (stereo not shown) [2-Azepan-1-ylmethyl-1-phenylethynyl-cyclopentanol], for which the “NA Uptake (% inhibition)” value is 99%. `OC1(c2cccs2)CCCC1CN1CCCCCC1` (stereo not shown) [2-Azepan-1-ylmethyl-1-thiophen-2-yl-cyclopentanol] registered an inhibition at 10 µM of 51%.

`Cc1cccc(C2(O)CCCCCC2CN2CCCC2)c1` (stereo not shown) [2-Pyrrolidin-1-ylmethyl-1-m-tolyl-cycloheptanol] displayed an inhibition at 10 µM of 67%. Same read-out and setting: under `Cc1cccc(C2(O)CCCC2CN2CCCC2)c1` (stereo not shown) [2-Pyrrolidin-1-ylmethyl-1-m-tolyl-cyclopentanol] stands 52%; under `Cc1ccc(C2(O)CCCCCC2CN2CCCC2)cc1` (stereo not shown) [2-Pyrrolidin-1-ylmethyl-1-p-tolyl-cycloheptanol], 76%; under `Cc1ccc(C2(O)CCCCC2CN2CCCC2)cc1` (stereo not shown) [2-Pyrrolidin-1-ylmethyl-1-p-tolyl-cyclohexanol], 59%. Same read-out and setting: the figure for `Cc1ccc(C2(O)CCCC2CN2CCCC2)cc1` (stereo not shown) [2-Pyrrolidin-1-ylmethyl-1-p-tolyl-cyclopentanol] is 78%; for `CCC(O)(C#Cc1ccccc1)C(C)CN1CCCC1` (stereo not shown) [3-Ethyl-4-methyl-1-phenyl-5-pyrrolidin-1-yl-pent-1-yn-3-ol] it is 76%.
